{
  "source": "patent US8119619B2",
  "about": "“Pregnane steroids and their use in the treatment of CNS disorders” (Umecrine AB, priority 2001, dated 2012)",
  "key": {"GABA-A receptor": {"test_system": "GABA-A receptor", "assay": "Cortical tissue homogenate study: radioactive chloride uptake into vesicles through the GABA-A receptor", "assay_type": "biochemical, rat", "conditions": "for Mean % (SEM) chloride uptake relative to only 10 uM GABA: 10 μM GABA alone = 100%, 3alpha-hydroxy-5alpha-pregnan-20-one 0-3000 nM + 10 μM GABA + 30 μM interacting steroid, reference steroid tested without blocker; for Within group change from 0 nM 3alpha-hydroxy-5alpha-pregnan-20-one: doses of 3alpha-hydroxy-5alpha-pregnan-20-one: 1=0, 2=50, 3=100, 4=150, 5=200, 6=1000, 7=3000 nM, + 10 μM GABA + 30 μM steroid", "procedure": "In these studies cortical tissue from mature male rats was homogenized in buffer. As a result of this procedure a suspension of small vesicles was formed, said vesicles having GABA-A receptors on their surface. When radioactive chloride is added to this suspension, a certain amount will enter the vesicles. This amount is related to how much open the GABA-A receptor is. Drugs that open the receptor will increase the amount of chloride in the vesicles in relation to the dosage of the drug. Similarly, drugs that close the GABA-A receptor will decrease the amount of chloride moving into the vesicles. The labeled chloride outside of the vesicles was washed away and separated from the chloride inside. The amount of radioactively labeled chloride inside the vesicles was thereafter measured in a fluid scintillator and a curve drawn.\nAt each experiment, a control of increasing dosages of GABA was used to ensure that the tissue sample is working properly. A second control was used to enhance the effect of 10 μM of GABA by adding increasing dosages 3alpha-hydroxy-5alpha-pregnan-20-one.\nThe effect is shown as a percentage change from the uptake with only 10 μM GABA and no 3 alpha-hydroxy-5alpha-pregnan-20-one in this case given the measure 100%.\nIn all cases 3alpha-hydroxy-5alpha-pregnan-20-one is given in increasing dosages 1=0, 2=50, 3=100, 4=150, 5=200, 6=1000, 7=3000 nM+10 μM GABA+30 μM of interacting Steroid. H=high, S=significant, NS=non significant. Statistical testing made with repeated measures ANOVA followed post hoc with lest significant difference test."}, "rats": {"test_system": "rats", "assay": "Morris water maze learning model", "assay_type": "in vivo, rat", "conditions": "for Learning to find the hidden platform (latency), substance given alone: i.v. daily for 6 days, four trials per day, UC1011 20 mg/kg or 3alpha-hydroxy-5alpha-pregnan-20-one 2 mg/kg, UC1011 vs 3alpha group p<0.05 day 3-6", "excerpt": "Animal studies using the Morris water-maze model have been performed. In the Morris water-maze model, the learning capacity of the test animals can be observed. The test animal, usually a rat, is placed in a container with water, having a platform at one location. This platform is slightly under the surface of the water, and the rat must swim until it finds the platform. In following test sessions the rat will learn were the platform is by looking at markings on the wall of the room. It is known, that the learning process is negatively influenced by the administration of CNS depressing 3alpha-hydroxy-pregnan-steroids. (Johansson L M, Birzniece V, Lindblad C., Olsson T. and Bäckström T (2002) Allopregnanolone inhibits learning in the Morris water maze. Brain Res 934, 125-131).\nThe results (FIG. 3) indicate, that this negative effect is removed or alleviated through the administration of a compound according to the present invention. The experiments were conducted using 3alpha-hydroxy-pregnan-20-one as learning disturbing substance (CAS no. 516-54-1, Table 1) and 3beta,20beta-dihydroxy-5alpha-pregnane, UC1011, (CAS 516-53-9, Table 2 and 3) as blocking substance. Rats (n=46) where injected (i.v) daily with 3beta,20beta-dihydroxy-5alpha-pregnane, UC1011 20 mg/kg (n=14), 3alpha-hydroxy-5alpha-pregnan-20-one 2 mg/kg (n=14), 3alpha-hydroxy-5alpha-pregnan-20-one+3beta,20beta-dihydroxy-5alpha-pregnane, UC1011 2:20 mg/kg (n=14), or vehicle (n=4) Animals were given four swim trials daily with maximal swimming time 120 second for each trial. The rats started to swim 8 minute after the 3alpha-hydroxy-5alpha-pregnan-20-one injection for 6 days. The performance of rats was monitored with a video camera and data was analyzed with analysis of variance (ANOVA) followed by post hoc test."}},
  "note": "Values joined by “and” are separate entries in the source; they are usually repeats but may differ in a detail not shown here. Equal values may be shown once. “Also recorded” adds a separate entry of the source.",
  "data": [
    {"compound": "3beta-hydroxy-5alpha-pregnan-20-one-sulfate, sodium salt [UC1016]", "values": [
      {"measurement": "Mean % (SEM) chloride uptake relative to only 10 uM GABA", "setting": "GABA-A receptor", "value": "109.8(19) %"},
      {"measurement": "Within group change from 0 nM 3alpha-hydroxy-5alpha-pregnan-20-one", "setting": "GABA-A receptor", "value": "All dosages = NS"}
    ]},
    {"compound": "CC(=O)[C@H]1CC[C@H]2[C@@H]3CC[C@H]4C[C@H](O)CC[C@]4(C)[C@H]3CC[C@]12C", "note": "[3alpha-hydroxy-5alpha-pregnan-20-one, reference compound]", "values": [
      {"measurement": "Mean % (SEM) chloride uptake relative to only 10 uM GABA", "setting": "GABA-A receptor", "value": "167.7% and 167.7(13) %"},
      {"measurement": "Within group change from 0 nM 3alpha-hydroxy-5alpha-pregnan-20-one", "setting": "GABA-A receptor", "value": "Dose 3, 5, 6, 7 = S"},
      {"measurement": "Latency to find the platform", "setting": "rats; 2 mg/kg i.v. daily, after 6 days with practice, max swimming time 120 second", "value": "above 80 seconds"},
      {"measurement": "Learning to find the hidden platform (latency), substance given alone", "setting": "rats", "value": "inhibits spatial learning"},
      {"measurement": "Learning to find the hidden platform (latency), substance given alone", "setting": "rats; listed as 3alpha-hydroxy-5alpha-preganane-20-one", "value": "do not learn significantly within six days"}
    ]},
    {"compound": "CC(=O)[C@H]1CC[C@H]2[C@@H]3CC[C@H]4C[C@@H](O)CC[C@]4(C)[C@H]3CC[C@]12C", "note": "[UC1010, 3beta-hydroxy-5alpha-pregnan-20-one]", "values": [
      {"measurement": "Mean % (SEM) chloride uptake relative to only 10 uM GABA", "setting": "GABA-A receptor", "value": "104.4(13) %"},
      {"measurement": "Within group change from 0 nM 3alpha-hydroxy-5alpha-pregnan-20-one", "setting": "GABA-A receptor", "value": "Dos 7 = S H; also recorded: The rest = NS"}
    ]},
    {"compound": "CC(O)C1CCC2C3CCC4CC(O)CCC4(C)C3CCC12C", "note": "(stereo not drawn) [UC1011, 3beta,20beta-dihydroxy-5alpha-pregnane]", "values": [
      {"measurement": "Mean % (SEM) chloride uptake relative to only 10 uM GABA", "setting": "GABA-A receptor", "value": "81.9(19) %"},
      {"measurement": "Effect on the increase in chloride uptake induced by 3alpha-hydroxy-5alpha-pregnan-20-one (FIG. 2)", "setting": "GABA-A receptor; 30 μM blocker, 10 μM GABA, increasing 3alpha-hydroxy-5alpha-pregnan-20-one", "value": "blocked"},
      {"measurement": "Within group change from 0 nM 3alpha-hydroxy-5alpha-pregnan-20-one", "setting": "GABA-A receptor", "value": "All dosages = NS"},
      {"measurement": "Learning to find the hidden platform (latency), blocker given with 3alpha-hydroxy-5alpha-pregnan-20-one", "setting": "rats; 3alpha-hydroxy-5alpha-pregnan-20-one + UC1011 2:20 mg/kg i.v. daily for 6 days, compared with the 3alpha-hydroxy-5alpha-pregnan-20-one group, p<0.05 day 4-6, 20 mg/kg", "value": "lower latency time; also recorded: start to learn significantly on the 4th day of training"},
      {"measurement": "Learning to find the hidden platform (latency), substance given alone", "setting": "rats", "value": "learned to find the platform as quickly as the control group; also recorded: learn to find the platform on the tired day of training"}
    ]},
    {"compound": "C[C@H](O)[C@H]1CC[C@H]2[C@@H]3CC[C@@H]4C[C@@H](O)CC[C@]4(C)[C@H]3CC[C@]12C", "note": "[UC1013, 3beta,20alpha-dihydroxy-5beta-pregnane]", "values": [
      {"measurement": "Mean % (SEM) chloride uptake relative to only 10 uM GABA", "setting": "GABA-A receptor", "value": "84.2(22) %"},
      {"measurement": "Within group change from 0 nM 3alpha-hydroxy-5alpha-pregnan-20-one", "setting": "GABA-A receptor", "value": "All dosages = NS"}
    ]},
    {"compound": "CC(=O)[C@H]1CC[C@H]2[C@@H]3CC[C@@H]4C[C@@H](O)CC[C@]4(C)[C@H]3CC[C@]12C", "note": "[UC1014, 3beta-hydroxy-5beta-pregnan 20-one]", "values": [
      {"measurement": "Mean % (SEM) chloride uptake relative to only 10 uM GABA", "setting": "GABA-A receptor", "value": "92.9(22) %"},
      {"measurement": "Within group change from 0 nM 3alpha-hydroxy-5alpha-pregnan-20-one", "setting": "GABA-A receptor", "value": "All dosages NS"}
    ]},
    {"compound": "C[C@]12CC[C@H](O)C[C@H]1CC[C@@H]1[C@@H]2CC[C@]2(C)[C@@H](C(=O)CO)CC[C@@H]12", "note": "[UC1015, 3beta,21-dihydroxy-5beta-pregnan-20-one]", "values": [
      {"measurement": "Mean % (SEM) chloride uptake relative to only 10 uM GABA", "setting": "GABA-A receptor", "value": "102.7(22) %"},
      {"measurement": "Within group change from 0 nM 3alpha-hydroxy-5alpha-pregnan-20-one", "setting": "GABA-A receptor", "value": "All dosages = NS"}
    ]},
    {"compound": "CC(=O)[C@H]1CC[C@H]2[C@@H]3CC[C@H]4C[C@@H](O)CC[C@]4(C)[C@H]3C(=O)C[C@]12C", "note": "[UC1017, 3beta hydroxy-5alpha-pregnan-11,20-dione]", "values": [
      {"measurement": "Within group change from 0 nM 3alpha-hydroxy-5alpha-pregnan-20-one", "setting": "GABA-A receptor", "value": "All dosages = NS"}
    ]},
    {"compound": "CC(=O)[C@H]1CC[C@H]2[C@@H]3CC=C4C[C@@H](OS(=O)(=O)[O-])CC[C@]4(C)[C@H]3CC[C@]12C.[Na+]", "note": "[UC1018, 3beta-hydroxy-delta5-pregnen-20-one-sulfate, sodium salt]", "values": [
      {"measurement": "Mean % (SEM) chloride uptake relative to only 10 uM GABA", "setting": "GABA-A receptor", "value": "64.7(23) %"},
      {"measurement": "Within group change from 0 nM 3alpha-hydroxy-5alpha-pregnan-20-one", "setting": "GABA-A receptor", "value": "All dosages = NS"}
    ]}
  ]
}
